Measurements taken from US9023821B2, “Use of MicroRNA for treating diseases associated with a dysfunction of the cilia in multiciliated epithelial cells” (Centre National de la Recherche Scientifique, priority 2009, dated 2015).

System: human airway epithelial cells (HAECs)
Experiment: High-throughput sequencing (HTS) of miRNAs at four stages of differentiation of HAECs
Conditions: for Modulation (ratio of the level of intensity of expression in log2 in two stages of differentiation), D7 − D0 / Modulation (ratio of the level of intensity of expression in log2 in two stages of differentiation), FC − D7 / Modulation (ratio of the level of intensity of expression in log2 in two stages of differentiation), WD − D0 / Modulation (ratio of the level of intensity of expression in log2 in two stages of differentiation), WD − FC / Abundance (%), D0 / Level of intensity of expression in log2, D0 / Abundance (%), D7 / Level of intensity of expression in log2, D7 / Abundance (%), FC / Level of intensity of expression in log2, FC / Abundance (%), WD / Level of intensity of expression in log2, WD: HTS; for Abundance (%), D0: ALI-D0; for Level of intensity of expression in log2, D0: ALI-D0 (proliferation); for Abundance (%), D7: ALI-D7; for Level of intensity of expression in log2, D7: ALI-D7 (proliferation and polarization); for Abundance (%), FC: ALI-FC; for Level of intensity of expression in log2, FC: ALI-FC (start of ciliogenesis); for Abundance (%), WD: ALI-WD; for Level of intensity of expression in log2, WD: ALI-WD (wholly differentiated epithelium); for Level of intensity of expression in log2 At the differentiated stage (WD) measured in HTS: healthy human airway epithelial tissue
Text: The total RNAs were extracted from HAECs cultivated at the air-liquid interface at four stages of differentiation: ALI-D0 (0 day), ALI-D7 (7 days), ALI-FC (during appearance of the first cilia at about 14 days) and ALI-WD (wholly differentiated at about 21 days). The cells are lysed in reagent with Trizol® (Invitrogen). The total RNAs containing small RNAs and microRNAs are purified on Qiagen RNEasy columns (Qiagen) according to the supplier's instructions.
The total RNAs containing small RNAs and microRNAs are isolated as before. The procedure is based on the Applied Biosystems Ligase-Enhanced Genome Detection technology (LEGenD™); the SOLiD™ Small RNA Expression kit (Applied Biosystems, France) was used. With this method it is possible to convert the small RNAs of a sample into a library of double-stranded DNA; it was developed by Applied Biosystems SOLiD™ System for a new generation of high-throughput sequencing.
The high-throughput sequencing of the microRNAs was carried out according to the supplier's recommendations. Briefly, the total RNAs containing the small RNAs are hybridized (65° C., 10 min, then at 16° C., 5 min) and ligated (16° C., 2-16 h in a thermocycler) with the Adaptor Mix A for producing a matrix for sequencing the 5′ end of the small RNAs, or with the Adaptor Mix B for sequencing the 3′ end. The samples are then reverse-transcribed (42° C., 30 min) to synthesize the complementary DNA (cDNA). The library of small RNAs is amplified by PCR and after migration on polyacrylamide gel the amplified small RNAs are cut out and extracted from the gel according to their size (length of about 105-150 bases, according to the supplier's instructions), eluted and resuspended in nuclease-free water. The concentration of nucleic acids is then measured and normalized before proceeding with preparation of the samples for sequencing.
For each microRNA sequenced, the number of sequences of the 5p strand and of the 3p strand of the microRNA was normalized to 10^6 sequences and converted to percentage abundance of expression for each of the microRNAs. The data were then normalized according to a linear model and an empirical Bayesian method using software R. For subsequent analyses, only the microRNAs were retained for which the percentage expression (or abundance) is greater than 1% of the total of the microRNAs in at least one culture condition, with a |Log2 Ratio| below 0.5 and an adjusted P-value below 0.05.

Substance | Modulation (ratio of the level of intensity of expression in log2 in two stages of differentiation), D7 − D0 | Modulation (ratio of the level of intensity of expression in log2 in two stages of differentiation), FC − D7 | Modulation (ratio of the level of intensity of expression in log2 in two stages of differentiation), WD − D0 | Modulation (ratio of the level of intensity of expression in log2 in two stages of differentiation), WD − FC | Abundance (%), D0 | Level of intensity of expression in log2, D0 | Abundance (%), D7 | Level of intensity of expression in log2, D7 | Abundance (%), FC | Level of intensity of expression in log2, FC | Abundance (%), WD | Level of intensity of expression in log2, WD | Level of intensity of expression in log2 At the differentiated stage (WD) measured in HTS
hsa-miR-449c: human miRNA, SEQ ID No. 201 (UAGGCAGUGUAUUGCUAGCGGCUGU; expressed or natural sequence; listed as Homo sapiens) | 2.59 log2 | 7.44 log2 | 9.44 log2 | −0.59 log2 | 0.00% | 1.54 log2 | 0.00% | 4.13 log2 | 0.32% | 11.57 log2 | 0.20% | 10.98 log2 | 10.98 log2
hsa-miR-1975: human miRNA, SEQ ID No. 15 (CCCCCACAACCGCGCUUGACUAGCU; expressed or natural sequence; listed as Homo sapiens) | 2.13 log2 | 0.34 log2 | 2.93 log2 | 0.46 log2 | 0.48% | 11.08 log2 | 2.09% | 13.22 log2 | 2.56% | 13.55 log2 | 2.67% | 14.01 log2 | 11.22 log2
